Source: EP0970046B1, “N-HYDROXY-2-(ALKYL, ARYL, OR HETEROARYL SULFANYL, SULFINYL OR SULFONYL)-3-SUBSTITUTED ALKYL, ARYL OR HETEROARYLAMIDES AS MATRIX METALLOPROTEINASE INHIBITORS” (Wyeth Holdings Corporation, priority 1997, dated 1998)
Counter-ions that a name gives are not always drawn. Like-named read-outs stand apart in the source and are kept apart here.

Experiments:
Type in all cases: biochemical
TACE = target: T1, TACE (Homo sapiens, UniProt P78536); assay: Procedure for Measuring TACE Inhibition
T1 construct: purchased Immunex
T1 sequence (P78536 215-824): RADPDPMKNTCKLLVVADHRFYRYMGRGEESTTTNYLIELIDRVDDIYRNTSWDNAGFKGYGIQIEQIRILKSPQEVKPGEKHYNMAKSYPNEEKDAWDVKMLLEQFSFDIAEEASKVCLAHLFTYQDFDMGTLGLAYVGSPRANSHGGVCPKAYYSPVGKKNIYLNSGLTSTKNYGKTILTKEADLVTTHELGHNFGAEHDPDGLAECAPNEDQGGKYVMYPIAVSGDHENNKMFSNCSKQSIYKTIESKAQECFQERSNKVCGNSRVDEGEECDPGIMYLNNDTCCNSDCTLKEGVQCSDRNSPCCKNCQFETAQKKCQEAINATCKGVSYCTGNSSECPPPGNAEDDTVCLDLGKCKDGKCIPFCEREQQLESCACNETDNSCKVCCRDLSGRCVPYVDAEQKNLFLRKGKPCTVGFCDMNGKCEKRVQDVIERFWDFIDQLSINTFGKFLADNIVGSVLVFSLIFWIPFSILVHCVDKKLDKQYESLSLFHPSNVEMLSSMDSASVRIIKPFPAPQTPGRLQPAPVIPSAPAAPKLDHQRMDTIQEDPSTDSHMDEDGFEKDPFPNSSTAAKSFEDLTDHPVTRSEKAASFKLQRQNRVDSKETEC
Summary of the method: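 Single-concentration screen: test compound at 1 µM final, 10-min room-temperature preincubation with 1 µg/mL protease in Tris pH 7.4 buffer containing glycerol. Initial rate from linear fluorescence increase (340/420 nm) over 10 min after adding 100 µM peptidyl substrate; significance versus control rate by Dunnett's test.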

MMP 1 = target: T2, MMP 1 (Homo sapiens, UniProt P03956); assay: In Vitro Collagenase Assay; conditions: for inhibition at 1 µM: read-out: MMP 1 % inhibition at 1 micromolar, 1 micromolar; for IC50: read-out: MMP 1 IC 50
T2 construct: human recombinant fibroblast collagenase (truncated, mw= 18,828, WAR, Radnor)
T2 sequence (P03956 100-269 limits assumed): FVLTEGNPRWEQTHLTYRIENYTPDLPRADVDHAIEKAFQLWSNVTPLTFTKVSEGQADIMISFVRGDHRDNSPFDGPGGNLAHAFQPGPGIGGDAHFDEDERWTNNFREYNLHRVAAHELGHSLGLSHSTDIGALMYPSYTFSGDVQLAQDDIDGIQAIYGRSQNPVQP
Procedure: The assay is based on the cleavage of a peptide substrate ((Dnp-Pro-Cha-Gly-Cys(Me)-His-Ala-Lys(NMa)-NH2), Peptide International, Inc.) by collagenase releasing the fluorescent NMa group which is quantitated on the fluorometer. Dnp quenches the NMa fluorescence in the intact substrate. […] Substrate is dissolved in methanol and stored frozen in 1 mM aliquots. […] For the assay, substrate is dissolved in HCBC buffer to a final concentration of 10 µM and collagenase to a final concentration of 5 nM. Compounds are dissolved in methanol, DMSO, or HCBC. The methanol and DMSO are diluted in HCBC to < 1.0%. Compounds are added to the 96 well plate containing enzyme and the reaction is started by the addition of substrate.
The slope of the line is calculated and represents the reaction rate.
The linearity of the reaction rate is confirmed (r^2 >0.85). The mean (x ± sem) of the control rate is calculated and compared for statistical significance (p <0.05) with drug-treated rates using Dunnett's multiple comparison test.

MMP 9 = target: T3, MMP 9 (Homo sapiens, UniProt P14780); assay: In Vitro Gelatinase Assay; conditions: for IC50: read-out: MMP 9 IC 50; for inhibition at 1 µM: read-out: MMP 9 % inhibition at 1 micromolar, 1 micromolar
T3 construct: from tissue; host or cells: human neutrophils
T3 sequence (P14780 94-707): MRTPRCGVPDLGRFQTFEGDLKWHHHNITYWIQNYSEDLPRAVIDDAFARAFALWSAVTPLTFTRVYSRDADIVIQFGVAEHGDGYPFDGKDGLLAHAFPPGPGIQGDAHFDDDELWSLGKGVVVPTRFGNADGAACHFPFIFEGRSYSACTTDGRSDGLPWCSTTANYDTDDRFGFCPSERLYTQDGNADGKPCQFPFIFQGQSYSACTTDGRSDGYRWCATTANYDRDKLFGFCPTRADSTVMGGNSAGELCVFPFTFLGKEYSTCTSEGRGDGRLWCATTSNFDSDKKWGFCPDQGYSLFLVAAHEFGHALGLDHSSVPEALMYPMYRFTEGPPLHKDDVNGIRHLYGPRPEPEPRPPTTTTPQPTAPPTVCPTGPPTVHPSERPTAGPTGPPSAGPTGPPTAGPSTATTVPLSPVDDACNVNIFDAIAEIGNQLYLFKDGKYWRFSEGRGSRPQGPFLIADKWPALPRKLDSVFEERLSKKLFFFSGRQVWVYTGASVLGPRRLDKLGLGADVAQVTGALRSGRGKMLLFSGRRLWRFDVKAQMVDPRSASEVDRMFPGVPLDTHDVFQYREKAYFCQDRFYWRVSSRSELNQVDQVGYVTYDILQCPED
Procedure: The assay is based on the cleavage of the thiopeptide substrate ((Ac-Pro-Leu-Gly(2 mercapto-4 methyl-pentanoyl)-Leu-Gly-OEt), Bachem Bioscience) by the enzyme, gelatinase, releasing the substrate product which reacts colorimetrically with DTNB ((5,5'-dithio-bis(2-nitro-benzoic acid)). The enzyme activity is measured by the rate of the color increase. The thiopeptide substrate is made up fresh as a 20 mM stock in 100% DMSO and the DTNB is dissolved in 100% DMSO as a 100 mM stock and stored in dark at room temperature. Both the substrate and DTNB are diluted together to 1 mM with substrate buffer (50 mM HEPES pH 7.5, 5 mM CaCl2) before use. […] The increase in OD405 is plotted and the slope of the line is calculated which represents the reaction rate. The linearity of the reaction rate is confirmed (r^2 >0.85). The mean (x ± sem) of the control rate is calculated and compared for statistical significance (p <0.05) with drug-treated rates using Dunnett's multiple comparison test.

MMP 13 = MMP 13 (Homo sapiens, UniProt P45452); assay: MMP 13 inhibition (HTS; method not described); conditions: HTS; for inhibition at 0.036 µM: read-out: MMP 13 % inhibition at 36 nM (HTS)
[1] = read-out: TACE % inhibition at 1 micromolar
[2] = human recombinant fibroblast collagenase
[3] = read-out: TACE % inhibition at 1 µM, 1 µM, Examples 169-240

Molecule: CCCCC(C(=O)NO)S(=O)(=O)c1ccc(OC)cc1 (stereo not shown) [Example 10, 2-(4-Methoxy-benzenesulfonyl)-hexanoic acid hydroxyamide]
- inhibition at 1 µM (TACE; [1]): 54.8%
- inhibition at 1 µM (MMP 1; [2]): 8%

Molecule: CCCCCCCCCCCCC(C(=O)NO)S(=O)(=O)c1ccc(OC)cc1 (stereo not shown) [Example 11, 2-(4-Methoxy-benzenesulfonyl)-tetradecanoic hydroxyamide]
- IC50 (TACE; read-out: TACE IC 50): 942 nM
- inhibition at 1 µM (MMP 1; [2]): 18.8%

Molecule: COc1ccc(S(=O)(=O)C(C)(Cc2ccccc2)C(=O)NO)cc1 (stereo not shown) [Example 12, N-Hydroxy-2-(4-methoxy-benzenesulfonyl)-2-methyl-3-phenyl-propionamide]
- inhibition at 1 µM (TACE; [1]): 15.5%
- IC50 (MMP 1; [2]): 100 nM

Molecule: COc1ccc(S(=O)(=O)C(C)(Cc2ccc(-c3ccccc3)cc2)C(=O)NO)cc1 (stereo not shown) [Example 14, 3-(Biphenyl-4-yl)-N-hydroxy-2-(4-methoxy-benzenesulfonyl)-2-methyl-propionamide]
- IC50 (MMP 9; human neutrophil gelatinase B): 23 nM
- inhibition at 1 µM (TACE; [1]): 17.2%
- IC50 (MMP 1; [2]): 158 nM

Molecule: COc1ccc(S(=O)(=O)C(C)(Cc2ccc(OCCN3CCCCC3)cc2)C(=O)NO)cc1 (stereo not shown) [Example 17, N-Hydroxy-2-(4-methoxy-benzenesulfonyl)-2-methyl-3-[4-(2-piperidin-1-yl-ethoxy)-phenyl]-propionamide]
- IC50 (MMP 9; human neutrophil gelatinase B): 8.9 nM
- inhibition at 1 µM (TACE; [1]): 41%
- IC50 (MMP 1; [2]): 239 nM

Molecule: COc1ccc(S(=O)(=O)C(C)(Cc2ccc(OCCN3CCCCCC3)cc2)C(=O)NO)cc1 (stereo not shown) [Example 18, 2-[4-(2-Azepan-1-yl-ethoxy)-benzyl]-2-(4-methoxy-benzenesulfonyl)-propionic acid hydroxyamide]
- IC50 (MMP 9; human neutrophil gelatinase B): 18.9 nM
- inhibition at 1 µM (TACE; [1]): 29.2%
- IC50 (MMP 1; [2]): 540 nM

Molecule: CC(Cc1ccc(OCCN2CCCCC2)cc1)(C(=O)NO)S(=O)(=O)c1cccs1 (stereo not shown) [Example 45]
- inhibition at 1 µM (MMP 9; human neutrophil gelatinase B): 48.6%
- inhibition at 1 µM (TACE; [1]): 20.4%
- inhibition at 1 µM (MMP 1; [2]): 49%

Molecule: COc1ccc(S(=O)(=O)C(C)(Cc2ccc3ccccc3c2)C(=O)NO)cc1 (stereo not shown) [Example 52, N-hydroxy-2-(4-methoxy-benzenesulfonyl)-2-methyl-3-naphthalen-2-yl-propionamide]
- IC50 (MMP 9; human neutrophil gelatinase B): 7.9 nM
- IC50 (MMP 1; [2]): 139 nM

Molecule: COc1ccc(S(=O)(=O)C(C(=O)NO)C(C)C)cc1 (stereo not shown) [Example 53, N-Hydroxy-2-(4-methoxy-benzenesulfonyl)-3-methyl-butyramide]
- inhibition at 1 µM (MMP 9; human neutrophil gelatinase B): 27.8%
- inhibition at 1 µM (TACE; [1]): 52.6%

Molecule: CCCC(CCC)(C(=O)NO)S(=O)(=O)c1ccc(OC)cc1 [Example 59, 2-(4-methoxy-benzenesulfonyl)-2-propyl-pentanoic acid hydroxyamide]
- inhibition at 1 µM (TACE; [1]): 24.9%
- inhibition at 1 µM (MMP 1; [2]): 30.2%

Molecule: COc1ccc(S(=O)(=O)C(Cc2ccccc2)(Cc2ccccc2)C(=O)NO)cc1 [Example 60, 2-benzyl-N-hydroxy-2-(4-methoxy-benzenesulfonyl)-3-phenyl-propionamide]
- IC50 (MMP 9; human neutrophil gelatinase B): 184 nM
- inhibition at 1 µM (TACE; [1]): 23.6%

Molecule: CCCCC(Cc1cccnc1)(C(=O)NO)S(=O)(=O)c1ccc(OC)cc1 (stereo not shown) [Example 70, 2-(4-Methoxy-benzenesulfonyl)-2-pyridin-3-ylmethyl-hexanoic acid hydroxyamide]
- inhibition at 1 µM (MMP 9; human neutrophil gelatinase B): 88.8%
- IC50 (TACE; read-out: TACE IC 50): 764 nM

Molecule: C#CCC(CC#C)(C(=O)NO)S(=O)(=O)c1ccc(OC)cc1 [Example 73, 2-(4-Methoxy-benzenesulfonyl)-2-prop-2-ynyl-pent-4-ynoic acid hydroxyamide]
- inhibition at 1 µM (TACE; [1]): 20.2%
- IC50 (MMP 1; [2]): 300 nM

Molecule: COc1ccc(S(=O)(=O)C(CC=C(C)C)(CC=C(C)C)C(=O)NO)cc1 [Example 79, 2-(4-Methoxy-benzenesulfonyl)-5-methyl-2-(3-methyl-but-2-enyl)-hex-4-enoic acid hydroxyamide]
- IC50 (MMP 9; human neutrophil gelatinase B): 0.54 nM
- IC50 (TACE; read-out: TACE IC 50): 805 nM
- IC50 (MMP 1; [2]): 25 nM

Molecule: COc1ccc(S(=O)(=O)C(C)(Cc2ccc(OCCN3CCOCC3)cc2)C(=O)NO)cc1 (stereo not shown) [Example 82, 2-(4-methoxy-benzenesulfonyl)-2-methyl-3-[4-(2-morpholin-4-yl-ethoxy)-phenyl]-propionic hydroxyamide hydrochloride]
- IC50 (MMP 9; human neutrophil gelatinase B): 19.4 nM
- inhibition at 1 µM (TACE; [1]): 34.5%
- IC50 (MMP 1; [2]): 238 nM

Molecule: COc1ccc(S(=O)(=O)C2(C(=O)NO)CCN(Cc3ccc(-c4ccccc4)cc3)CC2)cc1 [Example 88, 1-Biphenyl-4-ylmethyl-4-(4-methoxy-benzenesulfonyl)piperidine-4-carboxylic acid hydroxamide]
- IC50 (MMP 9): 12.8 nM
- IC50 (MMP 1): 1330 nM

Molecule: COc1ccc(S(=O)(=O)C2(C(=O)NO)CCN(Cc3ccc(Br)cc3)CC2)cc1 [Example 90, 1-(4-Bromo-benzyl)-4-(4-methoxy-benzenesulfonyl)-piperidine-4-carboxylic acid hydroxyamide]
- IC50 (MMP 9; human neutrophil gelatinase B): 10.3 nM

Molecule: CCCCN1CCC(C(=O)NO)(S(=O)(=O)c2ccc(OC)cc2)CC1 [Example 93, 1-Butyl-4-(4-methoxy-benzenesulfonyl)-piperidine-4-carboxylic acid hydroxyamide]
- inhibition at 1 µM (TACE; [1]): 15.8%
- inhibition at 1 µM (MMP 1; [2]): 56.3%

Molecule: COc1ccc(S(=O)(=O)C2(C(=O)NO)CCN(C3CCCCCCC3)CC2)cc1 [Example 94, 1-Cyclooctyl-4-(4-methoxy-benzenesulfonyl)-piperidine-4-carboxylic acid hydroxyamide]
- IC50 (MMP 9; human neutrophil gelatinase B): 138 nM
- IC50 (MMP 1; [2]): 2640 nM

Molecule: CCCCCCC(C(=O)NO)S(=O)(=O)CC(=O)Nc1ccc2ccccc2c1 (stereo not shown) [Example 197, 2-(Naphthalen-2-ylcarbamoylmethanesulfonyl)-octanoic acid hydroxyamide]
- inhibition at 1 µM (TACE; [3]): 17.8%
- inhibition at 0.036 µM (MMP 13; 36 nM): -33%

Molecule: CCCCCCC(Sc1ccc(Nc2ccncc2)cc1)C(=O)NO (stereo not shown) [Example 227, 2-[4-(Pyridin-4-ylamino)-phenylsulfanyl]-octanoic acid hydroxyamide]
- inhibition at 1 µM (TACE; [3]): 7.3%
- inhibition at 0.036 µM (MMP 13; 36 nM): 15%

Molecule: CCCCCCC(Sc1ccc(NC2CCCC2)cc1)C(=O)NO (stereo not shown) [Example 228, 2-(4-Cyclopentylamino-phenylsulfanyl)-octanoic acid hydroxyamide]
- inhibition at 1 µM (TACE; [3]): 6.8%
- inhibition at 0.036 µM (MMP 13; 36 nM): 37%

Molecule: CCCCCCC(Sc1ccc(NC)cc1)C(=O)NO (stereo not shown) [Example 229, 2-(4-Methylamino-phenylsulfanyl)-octanoic acid hydroxyamide]
- inhibition at 1 µM (TACE; [3]): 34.4%
- inhibition at 0.036 µM (MMP 13; 36 nM): 29%

Molecule: CCCCCCC(Sc1ccc(N2CCCCC2)cc1)C(=O)NO (stereo not shown) [Example 230, 2-(4-Piperidin-1-yl-phenylsulfanyl)-octanoic acid hydroxyamide]
- IC50 (TACE; Examples 169-240, read-out: TACE IC50): 700 nM
- inhibition at 1 µM (TACE; [3]): 72.1%
- inhibition at 0.036 µM (MMP 13; 36 nM): 29%

Molecule: CCCCCCC(Sc1ccc(N2CCNCC2)cc1)C(=O)NO (stereo not shown) [Example 231, 2-(4-Piperazin-1-yl-phenylsulfanyl)-octanoic acid hydroxyamide]
- inhibition at 1 µM (TACE; [3]): 41.6%
- inhibition at 0.036 µM (MMP 13; 36 nM): 23%

Molecule: (1-Hydroxycarbamoyl-propane-1-sulfanyl)-propionic acid hydroxyamide [Example 122]
- TACE % inhibition at 1 µM (TACE; 1 µM, Examples 110-168): 3.1%
- MMP 13 % inhibition at 0.2 µM (HTS) (MMP 13): 0%

Molecule: (1-Hydroxycarbamoyl-propane-1-sulfinyl)-acetic acid hydroxy amide [Example 121]
- TACE % inhibition at 1 µM (TACE; 1 µM, Examples 110-168): 6.1%
- MMP 13 % inhibition at 0.2 µM (HTS) (MMP 13): 0%

Molecule: Benzo[1,2,5]thiadiazole-4-sulfonic acid 4-(1-hydroxycarbamoyl-heptylsulfonyl)-hydroxyamide [Example 240]
- TACE % inhibition at 1 µM (TACE; 1 µM, Examples 169-240): 40.3%
- MMP 13 % inhibition at 36 nM (HTS) (MMP 13; 36 nM): 48%

Molecule: N-Hydroxy-3-methyl-2-phenethylsulfinyl-butyramide [Example 117]
- TACE % inhibition at 1 µM (TACE; 1 µM, Examples 110-168): 8.1%
- MMP 13 % inhibition at 0.2 µM (HTS) (MMP 13): 7%
